US20240245682A1, “ALPHA-V-BETA-8 INTEGRIN INHIBITORS AND USES THEREOF” (Pliant Therapeutics, Inc., priority 2022, published 2024)
pIC50: −log10 of the molar value.

Columns and labels:
Assay in all cases: AlphaScreen proximity-based integrin binding assay with TGF-b1 LAP
Conditions in all cases: values given as ranges
human integrin αVβ6 = human integrin αVβ6 (Homo sapiens, UniProt P06756+P18564)
Procedure, shortened: (§1)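 Purified human integrin incubated with compound, TGF-b1 LAP, biotinylated anti-LAP antibody and acceptor beads for 2 h, then streptavidin donor beads 30 min, room temperature, in 50 mM Tris-HCl pH 7.5, 0.1% BSA, 1 mM CaCl2/MgCl2. AlphaScreen signal (680 nm excitation, 520-620 nm emission); IC50 by four-parameter fit.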

human integrin αVβ1 = human integrin αVβ1 (Homo sapiens, UniProt P05556+P06756)
Procedure, shortened: as §1

human integrin αVβ8 = human integrin αVβ8 (Homo sapiens, UniProt P06756+P26012)
Procedure, shortened: as §1

human integrin αVβ6, sequence (P06756 31-992 limits assumed): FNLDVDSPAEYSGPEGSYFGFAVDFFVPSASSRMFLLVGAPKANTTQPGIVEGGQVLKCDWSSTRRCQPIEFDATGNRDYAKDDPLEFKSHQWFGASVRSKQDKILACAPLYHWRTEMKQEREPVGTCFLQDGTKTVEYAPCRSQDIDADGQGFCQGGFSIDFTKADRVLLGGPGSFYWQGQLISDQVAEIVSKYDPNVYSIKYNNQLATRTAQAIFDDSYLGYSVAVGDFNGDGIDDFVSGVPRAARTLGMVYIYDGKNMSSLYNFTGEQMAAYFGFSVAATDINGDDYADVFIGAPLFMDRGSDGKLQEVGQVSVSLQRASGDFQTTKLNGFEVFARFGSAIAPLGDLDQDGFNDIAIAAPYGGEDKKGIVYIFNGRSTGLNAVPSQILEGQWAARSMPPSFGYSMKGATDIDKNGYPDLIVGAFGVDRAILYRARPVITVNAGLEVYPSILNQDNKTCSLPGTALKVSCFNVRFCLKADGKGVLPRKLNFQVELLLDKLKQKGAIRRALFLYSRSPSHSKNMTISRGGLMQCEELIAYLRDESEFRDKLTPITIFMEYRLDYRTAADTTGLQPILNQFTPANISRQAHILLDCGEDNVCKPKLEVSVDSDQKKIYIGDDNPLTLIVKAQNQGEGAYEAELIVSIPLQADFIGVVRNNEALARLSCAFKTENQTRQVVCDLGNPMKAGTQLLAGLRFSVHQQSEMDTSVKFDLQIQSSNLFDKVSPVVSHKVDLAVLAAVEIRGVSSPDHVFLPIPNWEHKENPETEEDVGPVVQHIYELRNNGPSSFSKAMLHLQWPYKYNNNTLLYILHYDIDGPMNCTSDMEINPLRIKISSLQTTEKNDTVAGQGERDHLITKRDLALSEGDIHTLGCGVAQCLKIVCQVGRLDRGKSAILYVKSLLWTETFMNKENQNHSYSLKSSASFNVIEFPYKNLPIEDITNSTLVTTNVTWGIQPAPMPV
human integrin αVβ6, sequence (P18564 22-707 limits assumed): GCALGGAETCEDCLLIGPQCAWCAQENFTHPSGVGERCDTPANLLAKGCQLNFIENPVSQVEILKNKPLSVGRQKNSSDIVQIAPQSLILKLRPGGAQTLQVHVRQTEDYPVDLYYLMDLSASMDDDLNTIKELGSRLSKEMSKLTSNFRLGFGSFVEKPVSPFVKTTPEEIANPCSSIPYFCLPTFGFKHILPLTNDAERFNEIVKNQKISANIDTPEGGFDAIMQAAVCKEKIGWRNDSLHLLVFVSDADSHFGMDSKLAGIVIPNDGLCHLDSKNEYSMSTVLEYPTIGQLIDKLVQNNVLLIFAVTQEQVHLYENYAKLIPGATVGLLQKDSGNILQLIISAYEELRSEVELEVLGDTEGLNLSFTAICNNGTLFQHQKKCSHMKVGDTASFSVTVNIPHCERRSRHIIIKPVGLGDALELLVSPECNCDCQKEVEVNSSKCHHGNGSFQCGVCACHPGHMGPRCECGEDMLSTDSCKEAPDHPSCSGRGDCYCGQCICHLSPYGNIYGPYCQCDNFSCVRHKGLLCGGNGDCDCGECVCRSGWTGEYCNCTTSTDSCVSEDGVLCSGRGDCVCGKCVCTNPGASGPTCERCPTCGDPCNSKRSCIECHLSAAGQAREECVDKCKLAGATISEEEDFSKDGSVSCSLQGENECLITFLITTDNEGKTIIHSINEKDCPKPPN
human integrin αVβ8, sequence (P06756 31-992 limits assumed): as the sequence (P06756 31-992 limits assumed) above
human integrin αVβ8, sequence (P26012 43-684 limits assumed): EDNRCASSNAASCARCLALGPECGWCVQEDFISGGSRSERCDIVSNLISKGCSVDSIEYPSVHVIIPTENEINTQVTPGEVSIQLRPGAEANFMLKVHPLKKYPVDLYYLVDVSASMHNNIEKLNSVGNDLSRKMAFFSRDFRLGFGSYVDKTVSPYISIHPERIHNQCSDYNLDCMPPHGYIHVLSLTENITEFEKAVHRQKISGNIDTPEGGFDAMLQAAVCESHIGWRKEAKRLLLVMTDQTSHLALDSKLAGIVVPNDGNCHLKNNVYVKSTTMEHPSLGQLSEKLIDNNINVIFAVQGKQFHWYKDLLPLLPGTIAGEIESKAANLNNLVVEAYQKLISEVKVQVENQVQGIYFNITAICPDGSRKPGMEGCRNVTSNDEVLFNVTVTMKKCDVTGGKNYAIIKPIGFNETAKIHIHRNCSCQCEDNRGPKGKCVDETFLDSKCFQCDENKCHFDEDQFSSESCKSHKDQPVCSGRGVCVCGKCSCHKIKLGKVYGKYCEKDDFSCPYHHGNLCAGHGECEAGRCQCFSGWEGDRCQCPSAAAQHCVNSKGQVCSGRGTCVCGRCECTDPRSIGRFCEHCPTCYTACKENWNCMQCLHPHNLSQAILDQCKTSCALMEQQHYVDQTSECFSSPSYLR
human integrin αVβ1, sequence (P06756 31-992 limits assumed): as the sequence (P06756 31-992 limits assumed) above
human integrin αVβ1, sequence (P05556 21-728 limits assumed): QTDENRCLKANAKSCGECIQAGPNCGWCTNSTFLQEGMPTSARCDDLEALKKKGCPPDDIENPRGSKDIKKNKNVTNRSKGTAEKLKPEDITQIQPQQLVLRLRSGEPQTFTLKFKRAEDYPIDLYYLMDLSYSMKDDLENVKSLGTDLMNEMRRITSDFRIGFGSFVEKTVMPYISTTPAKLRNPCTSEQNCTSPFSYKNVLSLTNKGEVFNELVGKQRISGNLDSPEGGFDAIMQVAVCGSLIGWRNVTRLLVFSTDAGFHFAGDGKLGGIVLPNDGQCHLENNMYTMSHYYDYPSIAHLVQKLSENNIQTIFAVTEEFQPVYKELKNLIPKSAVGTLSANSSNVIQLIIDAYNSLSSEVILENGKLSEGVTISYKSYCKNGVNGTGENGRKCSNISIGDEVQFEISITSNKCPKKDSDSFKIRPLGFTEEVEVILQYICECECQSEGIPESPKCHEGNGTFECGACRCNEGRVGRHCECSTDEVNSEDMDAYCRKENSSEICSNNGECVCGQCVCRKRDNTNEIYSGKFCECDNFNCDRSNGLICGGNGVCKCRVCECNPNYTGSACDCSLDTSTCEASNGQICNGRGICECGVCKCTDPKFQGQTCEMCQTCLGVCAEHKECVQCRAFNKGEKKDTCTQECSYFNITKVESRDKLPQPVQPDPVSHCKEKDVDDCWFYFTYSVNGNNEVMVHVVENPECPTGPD

Row | pIC50 (human integrin αVβ6) | pIC50 (human integrin αVβ1) | pIC50 (human integrin αVβ8) | SMILES
1 | ≤ 6.30 | > 7.30 | 6.60 to 6.82 | O=C(O)[C@H](CCOCCCCc1ccc2c(n1)NCCC2)NC(=O)C1(c2ncccc2C2CC2)CC1 [Compound 58, N-(1-(3-cyclopropylpyridin-2-yl)cyclopropane-1-carbonyl)-O-(4-(5,6,7,8-tetrahydro-1,8-naphthyridin-2-yl)butyl)-L-homoserine]
2 | ≤ 6.30 | > 7.30 | > 7.30 | O=C(O)[C@H](CCOCCCCc1ccc2c(n1)NCCC2)NC(=O)C1(c2cn[nH]c2Cl)CC1 [Compound 74, N-(1-(5-chloro-1H-pyrazol-4-yl)cyclopropane-1-carbonyl)-O-(4-(5,6,7,8-tetrahydro-1,8-naphthyridin-2-yl)butyl)-L-homoserine]
3 | ≤ 6.30 | > 7.30 | > 7.30 | O=C(O)[C@H](CCOCCCCc1ccc2c(n1)NCCC2)NC(=O)C1(c2[nH]cnc2Cl)CC1 [Compound 79, N-(1-(4-chloro-1H-imidazol-5-yl)cyclopropane-1-carbonyl)-O-(4-(5,6,7,8-tetrahydro-1,8-naphthyridin-2-yl)butyl)-L-homoserine]
4 | ≤ 6.30 | > 7.30 | > 7.30 | O=C(O)[C@H](CCOCCCCc1ccc2c(n1)NCCC2)NC(=O)C1(c2ncsc2Cl)CC1 [Compound 82, N-(1-(5-chlorothiazol-4-yl)cyclopropane-1-carbonyl)-O-(4-(5,6,7,8-tetrahydro-1,8-naphthyridin-2-yl)butyl)-L-homoserine]
5 | < 6.30 | > 7.30 | > 7.30 | O=C(O)[C@H](CCOCCCCc1ccc2c(n1)NCCC2)NC(=O)C1(c2cccc(Cl)c2)CCOCC1 [Compound 89, N-(4-(3-chlorophenyl)tetrahydro-2H-pyran-4-carbonyl)-O-(4-(5,6,7,8-tetrahydro-1,8-naphthyridin-2-yl)butyl)-L-homoserine]
6 | ≤ 6.30 | > 7.30 | > 7.30 | Cn1cnc(Cl)c1C1(C(=O)N[C@@H](CCOCCCCc2ccc3c(n2)NCCC3)C(=O)O)CC1 [Compound 80, N-(1-(4-chloro-1-methyl-1H-imidazol-5-yl)cyclopropane-1-carbonyl)-O-(4-(5,6,7,8-tetrahydro-1,8-naphthyridin-2-yl)butyl)-L-homoserine]
7 | ≤ 6.30 | > 7.30 | > 7.30 | O=C(O)[C@H](CCOCCCCc1ccc2c(n1)NCCC2)NC(=O)C1(c2ncccc2C(F)F)CC1 [Compound 40, N-(1-(3-(difluoromethyl)pyridin-2-yl)cyclopropane-1-carbonyl)-O-(4-(5,6,7,8-tetrahydro-1,8-naphthyridin-2-yl)butyl)-L-homoserine]
